Assay results: patent US10188616B2, “Topical sphingosine-1-phosphate receptor agonist formulations and methods of using the same” (Teikoku Pharma USA, Inc., priority 2013, dated 2019)
Where a name gives a salt, the structure may show the parent alone. Read-outs that look alike come from different tables or passages of the source.

Tests used:
[1] = Transdermal flux test of topical patch formulations (Franz cell); format: in vitro ADME
Excerpt: Human cadaver skin was used and epidermal layers (stratum corneum and epidermis) were separated from the full-thickness skin as skin membrane. Samples were die-cut with an arch punch to a final diameter of about 2.0 cm^2. The release liner was removed and the drug delivery system was placed on top of the epidermis/stratum corneum with the drug adhesive layer facing the stratum corneum. Gentle pressure was applied to effect good contact between the adhesive layer and stratum corneum. The donor and receptor sides of the Franz cell were clamped together and the receptor solution containing 0.9% sodium chloride, 1% Tween 80 and 0.01% Gentamicin was added to the Franz cell. The cells were kept at 33° C. for the duration of the experiment. Samples of the receptor solution were taken at regular intervals and the active agent concentration was measured by HPLC. The removed receptor solution was replaced with fresh solution to maintain the sink conditions. The flux was calculated from the slope of cumulative amounts of the drug in the receiver compartment versus time plot.

[2] = orally administered fingolimod HCl; cited from earlier work
[3] = Transdermal flux test of fingolimod HCl gel and solutions (Franz cell); format: in vitro ADME, human; details: during the first 8 hours of the experiments
Procedure: Human cadaver skin was used and epidermal layers (stratum corneum and epidermis) were separated from the full-thickness skin as skin membrane and placed on top of the Franz cell. The donor compartment chamber and receptor sides of the Franz cell were clamped together. A receptor solution containing 0.9% sodium chloride was added to the cell. Solution samples or gel samples were inserted into the donor compartment chamber on top of the epidermis/stratum corneum. The cells were kept at a temperature of 33° C. during the entire experiment. Samples of the receptor solution were taken at regular intervals and the active agent concentration was measured by HPLC. The removed receptor solution was replaced with fresh solution to maintain the sink conditions. The flux was calculated from the slope of the cumulative amounts of the drug in the receiver compartment versus time.

[4] = Solubility of fingolimod in patch adhesive; format: physicochemical

CCCCCCCC/C=C\CCCCCCCC(=O)OCC(O)CO (centres unmarked) [GMO, Glyceryl monooleate]
effect on the fingolimod flux ([1]; excipient in fingolimod base patches in Duro-Tak 9301, human cadaver skin, FIG. 3): enhancement effect

CCCCCCCCCCCCOC(=O)C(C)O (centres unmarked) [LL, Lauryl Lactate]
effect on the fingolimod flux [1]: enhancement effect

CCCCCCCCc1ccc(CCC(N)(CO)CO)cc1 [fingolimod HCl, fingolimod hydrochloride]
peak to trough fluctuations, non-phosphorylated fingolimod [2]: ≤ 20% | peak to trough fluctuations, phosphorylated (active) form of fingolimod [2]: ≤ 45%

CCCCCCCCc1ccc(CCC(N)(CO)CO)cc1 [fingolimod, 2-amino-2-[2-(4-octylphenyl)ethyl]propane-1,3-diol]
detection of fingolimod in the receptor solutions [3]: not detected | solubility of fingolimod in adhesive ([4]; Duro-Tak 87-9301 adhesive): less than 1% | solubility of fingolimod in the adhesive ([4]; PIB adhesive): less than 1% | solubility of fingolimod in the adhesive ([4]; acrylate polymer adhesive Duro-Tak 900A): less than 1%
